Target: T1, SAMHD1 (Homo sapiens, UniProt Q9Y3Z3)
T1 construct: The final concentrations were 100 nM SAMHD1(115–626), 10 nM Ppx1; strep-tag; made in house
Experiment: SAMHD1 triphosphohydrolase continuous coupled-enzyme assay (MDCC-PBP phosphate biosensor, Ppx1)
Type: biochemical
Conditions: for inhibition of SAMHD1 GTP-activated TTP hydrolysis / activation of SAMHD1 TTP hydrolysis: 0.3 mM TTP; for inhibition of SAMHD1 GTP-activated TTP hydrolysis: 0.1 mM GTP; for inhibition of SAMHD1 GTP-activated TTP hydrolysis / hydrolysis by SAMHD1 (substrate): 0.3 mM analogue triphosphate; for activation of SAMHD1 TTP hydrolysis: 0.1 mM analogue triphosphate as activator; for hydrolysis by SAMHD1 (substrate): without and with 0.1 mM GTP
Description: SAMHD1 hydrolysis, activation and inhibition by nucleotide analogues was quantified using a continuous coupled assay employing the fluorescent phosphate biosensor MDCC-PBP to measure phosphate release from combined SAMHD1 triphosphohydrolase and S. cerevisiae Ppx1 exopolyphosphatase activity, described previously. SAMHD1 and Ppx1 were expressed as strep-tagged fusion proteins and purified as described previously. Didanosine triphosphate (ddI-TP) and dideoxy ATP (ddATP) were from Trilink Biotechnologies, Stavudine triphosphate (d4T-TP) was from Jena biosciences and Chemcyte. Abacavir triphosphate and Carbovir triphosphate were chemically synthesised in house from abacavir and carbovir as described above. Experiments were performed in 20 μL reaction volumes in 384-well low-protein-binding microplates (Corning, USA). In typical experiments, solutions containing SAMHD1, Ppx1, MDCC-PBP and activator (GTP, ddI-TP or d4T-TP), or activator plus inhibitor, were incubated for 5 min in assay buffer (20 mM Tris pH 8.0, 150 mM NaCl, 5 mM MgCl2 and 2 mM TCEP) at 25 °C before the reaction was initiated by the addition of substrate (TTP, ddI-TP or d4T-TP). The final concentrations were 100 nM SAMHD1(115–626), 10 nM Ppx1, 2.5 μM BSA, 40 μM MDCC-PBP (80 μM in ABC-TP and CBV-TP assays). Activator, substrate and inhibitor were added at concentrations described below. The fluorescence intensity increase resulting from the phosphate-product binding to MDCC-PBP was recorded at 430 nm excitation and 465 nm emission over 10–30 min in a Clariostar multiwell plate reader (BMG). Steady-state rates were obtained from the fluorescence time courses by fitting a linear function with maximal slope using the Mars software (BMG). Apparent dissociation constant of ddI-TP binding (KS), catalytic constant (kcat), maximal rate (kmax) and the ddI-TP concentration at half maximal activation (Ka) were determined by nonlinear least squares fitting using a Hill-function in the software package Grafit 7.0.3 (Erithacus software, UK). All measurements were performed at least in triplicate and data are represented as mean ± SEM.

[1] = 1 mM TTP, varying ddI-TP, lower estimate
[2] = Hill equation fit, 0.2 mM GTP, mean ± SEM

T1 sequence (Q9Y3Z3 115-626): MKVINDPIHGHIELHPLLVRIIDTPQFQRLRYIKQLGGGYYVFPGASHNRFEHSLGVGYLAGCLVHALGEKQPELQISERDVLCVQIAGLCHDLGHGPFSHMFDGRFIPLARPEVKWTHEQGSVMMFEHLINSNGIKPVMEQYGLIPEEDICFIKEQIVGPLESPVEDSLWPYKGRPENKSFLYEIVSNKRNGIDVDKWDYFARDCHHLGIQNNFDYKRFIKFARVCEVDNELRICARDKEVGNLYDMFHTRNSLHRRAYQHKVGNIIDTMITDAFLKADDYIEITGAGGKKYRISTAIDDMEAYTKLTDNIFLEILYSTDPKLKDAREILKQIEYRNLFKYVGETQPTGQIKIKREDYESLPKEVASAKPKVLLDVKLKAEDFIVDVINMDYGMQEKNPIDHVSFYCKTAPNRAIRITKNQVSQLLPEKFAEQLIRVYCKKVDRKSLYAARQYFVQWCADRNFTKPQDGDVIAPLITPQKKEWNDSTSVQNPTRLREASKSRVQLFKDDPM

hydrolysis by SAMHD1 (substrate)	SMILES	inhibition of SAMHD1 GTP-activated TTP hydrolysis	activation of SAMHD1 TTP hydrolysis	increase of ddI-TP hydrolysis in the presence of activating GTP (0.3 mM ddI-TP, 0.1 mM GTP vs no GTP)	Ka, ddI-TP concentration at half maximal activation of TTP hydrolysis [1]	maximal rate kmax of TTP hydrolysis activated by ddI-TP [1]	apparent binding constant KS of ddI-TP hydrolysis (Hill equation fit, 0.2 mM GTP (saturating activator), mean ± SEM)	Hill coefficient n of ddI-TP hydrolysis [2]	catalytic constant kcat of ddI-TP hydrolysis [2]	ddI-TP hydrolysis rate relative to TTP hydrolysis rate (fold slower) (in the presence of 0.1 mM GTP)
not hydrolysed by SAMHD1	Nc1nc(=O)c2ncn([C@H]3C=C[C@@H](COP(=O)(O)OP(=O)(O)OP(=O)(O)O)C3)c2[nH]1 [CBV-TP, Carbovir 5′-triphosphate]	neither ABC-TP nor CBV-TP displayed any activation or inhibition of SAMHD1	neither ABC-TP nor CBV-TP displayed any activation or inhibition of SAMHD1	–	–	–	–	–	–	–
no hydrolysis by SAMHD1	Nc1ncnc2c1ncn2[C@H]1CC[C@@H](CO[P@@](=O)(O)O[P@](=O)(O)OP(=O)(O)O)O1 [ddATP, dideoxy ATP]	no measurable activation or inhibition	no measurable activation or inhibition	–	–	–	–	–	–	–
little or no hydrolytic activity	Cc1cn([C@H]2C=C[C@@H](COP(=O)(O)OP(=O)(O)OP(=O)(O)O)O2)c(=O)[nH]c1=O [d4T-TP, stavudine triphosphate]	not a SAMHD1 inhibitor or activator	not a SAMHD1 inhibitor or activator	–	–	–	–	–	–	–

SMILES	hydrolysis by SAMHD1 (substrate)	inhibition of SAMHD1 GTP-activated TTP hydrolysis	activation of SAMHD1 TTP hydrolysis	increase of ddI-TP hydrolysis in the presence of activating GTP (0.3 mM ddI-TP, 0.1 mM GTP vs no GTP)	Ka, ddI-TP concentration at half maximal activation of TTP hydrolysis [1]	maximal rate kmax of TTP hydrolysis activated by ddI-TP [1]	apparent binding constant KS of ddI-TP hydrolysis (Hill equation fit, 0.2 mM GTP (saturating activator), mean ± SEM)	Hill coefficient n of ddI-TP hydrolysis [2]	catalytic constant kcat of ddI-TP hydrolysis [2]	ddI-TP hydrolysis rate relative to TTP hydrolysis rate (fold slower) (in the presence of 0.1 mM GTP)
Nc1nc(NC2CC2)c2ncn([C@H]3C=C[C@@H](COP(=O)(O)OP(=O)(O)OP(=O)(O)O)C3)c2n1 [ABC-TP, abacavir-5′-triphosphate]	not hydrolysed by SAMHD1	neither ABC-TP nor CBV-TP displayed any activation or inhibition of SAMHD1	neither ABC-TP nor CBV-TP displayed any activation or inhibition of SAMHD1	–	–	–	–	–	–	–
O=c1[nH]cnc2c1ncn2[C@H]1CC[C@@H](COP(=O)(O)OP(=O)(O)OP(=O)(O)O)O1 [ddI-TP, didanosine triphosphate]	hydrolysed by SAMHD1 even in the absence of GTP	no significant inhibitory effects	activates SAMHD1 triphosphohydrolase activity, but to a much lesser degree than the natural activator, GTP	three-fold	> 300 µM	> 0.1 s⁻¹	226 ± 12 µM	1.7 ± 0.1	0.24 ± 0.04 s⁻¹	around six-fold
